Test results taken from patent US4550107A, “Condensed diazepinones, their compositions and methods of use as pharmaceuticals” (Dr. Karl Thomae GmbH, priority 1984, dated 1985).
“And” between values parts separate entries of the source, which are not always exact repeats. Identical values can stand only once.

Experiments:
[1] = biological target: muscarinic receptors (cerebral cortex); test: Receptor binding tests: inhibition of specific 3H-N-methylscopolamine binding, cerebral cortex; design: species or system Sprague-Dawley rats; settings: cerebral cortex homogenate 1:3000; 0.3 nM 3H-NMS; 30° C., 45 min, pH 7.4
Protocol: (§1) B. Studies of binding to muscarinic receptors: determining the IC50 value
(§2) The organ donors are Sprague-Dawley rats weighing from 180-220 g. After the removal of the heart, stomach and cerebral cortex, all the other steps are carried out in ice-cold Hepes-HCl buffer (pH 7.4; 100 m molar NaCl, 10 m molar MgCl2). The whole heart is cut up with scissors. All the organs are then homogenised in a Potter apparatus. For the bonding test, the homogenised organs are diluted as follows:
(§3) The homogenised organs are incubated at a specific concentration of the radioligand and with a series of concentrations of the non-radioactive test substances in an Eppendorf centrifugal test tube at 30° C. Incubation lasts 45 minutes. The radioligand is 0.3 n molar ^3 H-N-methylscopolamine (^3 H-NMS). After incubation has been ended by centrifuging at 14,000 g, the radioactivity in the pellet is determined. It represents the sum of specific and non-specific binding of ^3 H-NMS. The proportion of non-specific binding is defined as the radioactivity which binds in the presence of 1 μmolar quinuclidinyl benzylate. Four measurements are made in each case. The IC50 values of the non-labeled test substances are determined graphically. They represent the concentration of test substance at which the specific binding of ^3 H-NMS to the muscarinic receptors in the various organs is inhibited by 50%.

[2] = biological target: T1, muscarinic receptors (heart) (Rattus norvegicus, UniProt P10980); test: Receptor binding tests: inhibition of specific 3H-N-methylscopolamine binding, whole heart; design: species or system Sprague-Dawley rats; settings: whole heart homogenate 1:250; 0.3 nM 3H-NMS; 30° C., 45 min, pH 7.4
T1 construct: The whole heart is cut up with scissors; All the organs are then homogenised in a Potter apparatus; from tissue; host or cells: rat whole heart, homogenised (1:250)
T1 sequence (P10980 1-466): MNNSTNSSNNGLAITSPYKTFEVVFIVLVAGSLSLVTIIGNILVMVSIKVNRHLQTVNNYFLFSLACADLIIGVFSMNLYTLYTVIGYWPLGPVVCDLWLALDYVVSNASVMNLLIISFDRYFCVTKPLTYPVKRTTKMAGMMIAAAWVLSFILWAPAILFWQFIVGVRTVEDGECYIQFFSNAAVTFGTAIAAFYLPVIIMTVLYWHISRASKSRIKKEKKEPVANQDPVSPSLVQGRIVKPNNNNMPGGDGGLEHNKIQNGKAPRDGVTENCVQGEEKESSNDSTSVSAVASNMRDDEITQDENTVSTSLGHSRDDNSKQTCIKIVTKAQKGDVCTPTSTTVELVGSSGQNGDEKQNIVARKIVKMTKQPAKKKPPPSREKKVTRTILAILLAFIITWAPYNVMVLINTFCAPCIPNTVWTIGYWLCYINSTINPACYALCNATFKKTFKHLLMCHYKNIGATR
Protocol: as §1, §2, §3

[3] = Stability of separated diastereoisomers (reversion into the original mixture); format: physicochemical; settings: for stability in crystalline form: temperature below the melting point
Description: The base-substituted condensed diazepinones of formula I according to the invention contain up to two independent chiral elements, including an asymmetric carbon atom in the side chain. The second chiral element is the acylated tricyclic moiety itself, which can occur in two mirror-image forms. The nature of the tricyclic compound determines whether the energy barrier for inversion at this center is so high that the individual isomers are stable at ambient temperature and capable of being isolated.
The title compound is prepared analogously to Example 2 from 5-(chloroacetyl)-5,10-dihydro-11H-dibenzo[b,e][1,4]diazepin-11-one and D,L-2-[(4-methyl-1-piperazinyl)methyl]-piperidine to give colorless crystals, mp. 200°-202° C. (acetonitrile/activated charcoal). According to thin layer chromatography (Polygram® SIL G/UV254; eluant: dichloromethane/ethyl acetate/cyclohexane/methanol/conc. ammonia 3.5:1.5:0.46: 0.46:0.06; RF approx. 0.25) it is a mixture of isomers in a quantity ratio of approximately 1:1. Preparative separation is carried out by the following method:
(a) By liquid chromatography (HPLC):
Mobile Phase: Methylene chloride/cyclohexane/methanol/conc. ammonia (200:210:40:0.5 v/v);
In each case, a solution (100 μl) of the diastereoisomer mixture (15.2 mg) is injected into the mobile phase (1 ml) and thus placing the substance (1.5 mg) on the column.
(b) By liquid chromatography on a Jobin-Yvon chromatospac Prep using Li Chroprep Si 60, 25-40 μm (Merck-Darmstadt, Art. 9390) under a pressure of 10 bar.

heart rate = test: Heart rate increasing activity (tachycardia) in the conscious dog; format: in vivo; settings: Canis lupus familiaris, iv; dose increasing heart rate by 50 beats per minute; conscious dogs; read-out: Tachycardia (dog) ED50
Protocol: (§4) The methods used have the objective of confirming the selectivity of the antimuscarinic acitivity. Those substances which are selected on the basis of "in vitro" investigations are tested for:
1. tachycardiac effect in conscious dogs;
1. Heart rate increasing activity in the conscious dogs
The substances are injected intravenously and the heart rate is measured with the aid of a tachygraph. After a control period, increasing doses of the compound are administered in order to increase the heart rate. The next dose is injected when the effect of the preceding dose is no longer visible. […] Each substance is tested on 3 to 5 dogs.

gastric acid secretion = test: Inhibition of gastric acid secretion in pylorus-ligated rats (Shay rat); format: in vivo, male Wistar rats; settings: iv, 2 h, i.v., 5 min before pylorus ligature, volume or acid output reduced by 50%
Protocol: as §4
2. inhibitory effect on gastric acid secretion in pylorous-ligated rats; and
2. Inhibition of secretion in rats
Increasing doses of the substance are injected intravenously into male Wistar rats (10 rats per group) 5 minutes before the ligature of the pylorus. The rats are killed 2 hours later and both the volume of gastric acid and also the "acid output" are determined by titration. The dosage of substance which reduces either the volume or the acid output by 50% is determined.

Row | Structure (SMILES) | IC50 [1] | IC50 [2] | further results
1 | CCN(CC)CC1CCCCN1CC(=O)N1c2ccccc2NC(=O)c2cscc21 (centres unmarked) [G] | 2200 nM | 220 nM | –
2 | CN1CCN(CC2CCCCN2CC(=O)N2c3ccccc3NC(=O)c3ccccc32)CC1 (single isomer, unassigned) [Isomer II, 5,10-Dihydro-5-[[2-[(4-methyl-1-piperazinyl)methyl]-1-piperidinyl]-acetyl]-11H-dibenzo[b,e][1,4]diazepin-11-one] | – | – | stability in crystalline form [3]: completely stable
3 | CN1C2CCC1CC(OC(=O)C(CO)c1ccccc1)C2 (centres unmarked) [C] | – | – | ED (increase of 50 beats per minute) (heart rate): 0.0077 mg/kg
4 | CN1CCN(CC2CCCCN2CC(=O)N2c3ccccc3NC(=O)c3ccccc32)CC1 (single isomer, unassigned) [Isomer I, 5,10-Dihydro-5-[[2-[(4-methyl-1-piperazinyl)methyl]-1-piperidinyl]-acetyl]-11H-dibenzo[b,e][1,4]diazepin-11-one] | – | – | stability in crystalline form [3]: completely stable; half-life ([3]; hplc mobile phase solution, ambient temperature, mobile phase methylene chloride/cyclohexane/methanol/conc. ammonia, read-out: reverts into the original mixture, t1/2): < 216 h
5 | CN(CC1CCCCN1CC(=O)N1c2ccccc2C(=O)Nc2cccnc21)[C@H]1CC[C@H](O)CC1 (relative stereo) [K] | 1100 nM | 70 nM | –
6 | CN(C)CC1CCCCN1CC(=O)N1c2ccccc2C(=O)Nc2cccnc21 (centres unmarked) [D] | 1500 nM | 150 nM and 130 nM | –
7 | CCN(CC)CC1CCCCN1CC(=O)N1c2ccccc2C(=O)Nc2cccnc21 (racemic) [A] | – | 140 nM and 150 nM | ED (increase of 50 beats per minute) (heart rate): 0.103 mg/kg; ED50 (gastric acid secretion): > 10 mg/kg
8 | CCN(CC)CC1CCCN(CC(=O)N2c3ccccc3NC(=O)c3ccccc32)C1 (centres unmarked) [M] | 100 nM | 35 nM | –
9 | CN1CCN(CC(=O)N2c3ccccc3C(=O)Nc3cccnc32)CC1 [B] | – | – | ED (increase of 50 beats per minute) (heart rate): 0.468 mg/kg; ED50 (gastric acid secretion): 0.4 mg/kg
10 | CCN(CC)C[C@@H]1CCCN1CC(=O)N1c2ccccc2C(=O)Nc2cccnc21 [H] | 4500 nM | 400 nM | –
11 | CN(C)CCC1CCCCN1CC(=O)N1c2ccccc2C(=O)Nc2cccnc21 (centres unmarked) [E] | 1300 nM | 170 nM | –
12 | CN(CC1CCCN(CC(=O)N2c3ccccc3C(=O)Nc3cccnc32)C1)C1CCCCC1 (centres unmarked) [L] | 85 nM | 19 nM | –

Continued, in another order:

Row | IC50 [1] | IC50 [2] | Structure (SMILES) | further results
13 | 100 nM | 18 nM | CCCCN(C)CC1CCCCN1CC(=O)N1c2ccccc2NC(=O)c2ccccc21 (centres unmarked) [Q] | –
14 | 120 nM | 17 nM | CN1CCCC1C1CCCN(CC(=O)N2c3ccccc3NC(=O)c3ccccc32)C1 (centres unmarked) [P] | –
15 | 750 nM and 1000 nM | 150 nM and 100 nM | CCN(CC)CC1CCCCN1CC(=O)N1c2ccccc2NC(=O)c2ccccc21 (centres unmarked) [F] | –
16 | 800 nM | 90 nM | CCN(CC)C[C@@H]1CCCN1CC(=O)N1c2ccccc2NC(=O)c2ccccc21 [I] | –
17 | 50 nM | 13 nM | CN(CC1CCCCN1CC(=O)N1c2ccccc2NC(=O)c2ccccc21)C1CCCCC1 (centres unmarked) [N] | –
18 | 20 nM | 2.8 nM | CN(CC1CCCN(CC(=O)N2c3ccccc3NC(=O)c3ccccc32)C1)C1CCCCC1 (centres unmarked) [O] | –
